From ChEMBL document CHEMBL1145356, “Discovery of new C3aR ligands. Part 1: arginine derivatives” (Bioorg Med Chem Lett, 2007) come the findings set out here.

For data set [1], the target named is T1, C3a anaphylatoxin chemotactic receptor (Homo sapiens, UniProt Q16581).
T1 sequence (Q16581 whole entry): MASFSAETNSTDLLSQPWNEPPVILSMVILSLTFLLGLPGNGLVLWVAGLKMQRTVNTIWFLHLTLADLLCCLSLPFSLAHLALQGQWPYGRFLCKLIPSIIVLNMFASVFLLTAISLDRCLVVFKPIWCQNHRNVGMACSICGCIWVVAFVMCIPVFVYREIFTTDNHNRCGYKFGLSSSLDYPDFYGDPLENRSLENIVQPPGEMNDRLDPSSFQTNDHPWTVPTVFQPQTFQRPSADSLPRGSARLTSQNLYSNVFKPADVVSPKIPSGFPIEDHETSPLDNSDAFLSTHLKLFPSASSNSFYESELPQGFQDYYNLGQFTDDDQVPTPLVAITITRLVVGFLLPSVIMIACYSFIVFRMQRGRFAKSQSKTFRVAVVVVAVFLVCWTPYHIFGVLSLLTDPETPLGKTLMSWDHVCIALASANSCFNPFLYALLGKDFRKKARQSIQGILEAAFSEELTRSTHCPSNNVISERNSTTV
The data set is described as follows: Inhibition of human C3a receptor expressed on HMC1 cells by SPA assay. Format: cell-based.

Data set [2] concerns the target T1, C3a anaphylatoxin chemotactic receptor. Kind of data set: Antagonist activity at C3aR. Format: functional.
For data set [3] the target is unchanged. Kind of data set: Agonist activity at C3a receptor expressed on HMC1 cells. Format: functional, cell-based.
Data set [4] in a line: Peak plasma concentration in ovalbumin-induced BALB/c mouse model of airway inflammation at 30 mg/kg, ip after 30 mins. In kind it is ADME, organism-based. Further details: dose 30 mg/kg, route intraperitoneal.
Data set [5] is described as follows: Bioavailability in rats at 1 mg/kg, […]. The settings on record: rat, in vivo. Format: ADME, organism-based.
Another data set deals with CYP3A4 (Homo sapiens, UniProt P08684). The data set is described as follows: Inhibition of CYP3A4 at 50 uM. Format: ADME.
Sequence of CYP3A4 (P08684 whole entry): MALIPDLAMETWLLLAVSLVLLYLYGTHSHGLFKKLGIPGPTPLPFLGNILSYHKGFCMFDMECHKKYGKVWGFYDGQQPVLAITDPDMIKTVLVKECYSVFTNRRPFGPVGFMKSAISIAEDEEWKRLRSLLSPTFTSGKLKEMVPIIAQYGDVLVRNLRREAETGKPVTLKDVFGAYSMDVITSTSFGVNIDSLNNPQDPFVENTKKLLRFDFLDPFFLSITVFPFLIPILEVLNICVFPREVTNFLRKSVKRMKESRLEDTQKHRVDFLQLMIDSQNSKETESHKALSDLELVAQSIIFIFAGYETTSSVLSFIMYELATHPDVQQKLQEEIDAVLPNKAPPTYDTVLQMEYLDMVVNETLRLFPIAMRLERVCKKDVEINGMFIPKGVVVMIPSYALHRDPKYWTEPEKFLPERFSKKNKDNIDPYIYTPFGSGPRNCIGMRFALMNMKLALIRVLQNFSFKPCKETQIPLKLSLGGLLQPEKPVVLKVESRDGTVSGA
A further data set deals with CYP2D6 (Homo sapiens, UniProt P10635). The data set is described as follows: Inhibition of CYP2D6 at 50 uM. Format: ADME.
Sequence of CYP2D6 (P10635 whole entry): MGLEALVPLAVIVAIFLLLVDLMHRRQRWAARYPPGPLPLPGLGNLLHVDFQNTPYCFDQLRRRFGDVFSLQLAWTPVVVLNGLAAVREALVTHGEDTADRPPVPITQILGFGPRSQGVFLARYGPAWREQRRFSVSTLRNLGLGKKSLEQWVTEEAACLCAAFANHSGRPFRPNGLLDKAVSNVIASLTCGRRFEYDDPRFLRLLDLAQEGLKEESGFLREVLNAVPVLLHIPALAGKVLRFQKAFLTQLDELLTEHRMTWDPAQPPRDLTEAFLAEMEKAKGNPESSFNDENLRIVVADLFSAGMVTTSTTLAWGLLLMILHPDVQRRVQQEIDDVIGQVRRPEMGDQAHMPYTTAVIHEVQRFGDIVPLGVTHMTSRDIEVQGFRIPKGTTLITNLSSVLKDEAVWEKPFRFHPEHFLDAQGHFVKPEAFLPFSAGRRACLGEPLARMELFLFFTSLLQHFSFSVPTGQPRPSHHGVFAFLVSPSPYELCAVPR
The nature of data set [6]: Peak plasma concentration in ovalbumin-induced BALB/c mouse model of airway inflammation at 3 mg/ml aerosol after 30 mins. In kind it is ADME, organism-based. The settings on record: inhaled or intranasal.
A short description of data set [7]: Bioavailability in rats at 1 mg/kg, po. Format: ADME, organism-based. The settings on record: rat, in vivo.
A short description of data set [8]: Metabolic clearance in rat liver microsomes. In kind it is ADME, Microsome. A general note: Microsomes from liver hold many membrane-bound enzymes, among them those of drug oxidation.
Data set [9] is described as follows: Permeability from apical to basolateral side in Caco-2 cells. Format: ADME, cell-based. The settings on record: human, read-out: permeability.
A short description of data set [10]: Metabolic clearance in rat hepatocytes assessed per 10^6 cells. Format: ADME, cell-based, Liver, Hepatocyte.

As to `Cc1ccc(Cl)cc1-c1ccc(C(=O)N[C@H](CCCN=C(N)N)C(=O)O)o1`, the IC50 (commonly the point on the concentration scale where inhibition reaches its midpoint) in [1] was 794 nM. Same read-out and setting: the figure for `N=C(N)NCCC[C@@H](NC(=O)c1ccc(-c2csc3ccccc23)o1)C(=O)O` is 316 nM; for `NC(N)=NCCC[C@@H](NC(=O)c1ccc(-c2cccc3c2oc2ccccc23)o1)C(=O)O` it is 3980 nM. `N=C(N)NCCC[C@@H](NC(=O)c1ccc(-c2cccc(Cl)c2)cc1)C(=O)O` showed an IC50 in data set [1] of 100000 nM.

Consider `NC(N)=NCCC[C@@H](NC(=O)c1cccc(-c2cccc(Cl)c2)c1)C(=O)O`, for which, in data set [2], the concentration for a half-maximal effect (EC50) (usually the concentration needed to bring the measured effect to its halfway point) is 3.98 µM. Besides, in data set [1], the 50% inhibitory concentration (IC50) is 794 nM.

For the molecule `NC(N)=NCCC[C@@H](NC(=O)N1CCN(C(c2ccccc2)c2ccccc2)CC1)C(=O)O`, the IC50 in data set [1] is 50100 nM.

In data set [1], `N=C(N)NCCC[C@@H](NC(=O)c1ccc(C(c2ccccc2)c2ccccc2)cc1)C(=O)O` gave an IC50 of 794 nM. The molecule `N=C(N)NCCC[C@@H](NC(=O)c1ccc(C(c2cccc(F)c2)c2cccc(F)c2)o1)C(=O)O` gave an EC50 in [2] of 1.26 µM. In data set [1], this molecule showed an IC50 of 31.6 nM.

Regarding `NC(N)=NCCC[C@@H](NC(=O)c1ccc(C(c2ccc(Cl)cc2)c2ccc(Cl)cc2)o1)C(=O)O`, in data set [3], a half-maximal response (EC50) required 126 nM. Moreover, the IC50 in data set [1] was 158 nM. Consider `N=C(N)NCCC[C@H](NC(=O)c1ccc(C(c2ccccc2)c2ccccc2)o1)C(=O)O`, for which the peak concentration (Cmax) – broadly, the peak of the concentration-time curve – in data set [4] was 33800 ng/mL; in data set [6], 27 ng/mL. Further, the bioavailability in [5] and in data set [7] was under 1% throughout. Further, the inhibition (as a rule, the percentage by which the read-out fell short of the control) at 50 µM was 0% against CYP3A4 and 12% on CYP2D6. Besides, the microsomal CLint (commonly the capacity of the preparation to metabolise the compound, expressed as a volume cleared per time) in data set [8] came to 4 µL/min/mg. Also, in data set [9], the Papp A→B came out at 0.4 ×10⁻⁶ cm/s. Also, the hepatocyte CLint (in general, a measure of how fast metabolising enzymes remove a compound, apart from limits set by blood flow) in [10] was 5 µL/min/1e6 cells. `Cc1cccc(-c2ccc(C(=O)N[C@H](CCCNC(=N)N)C(=O)O)o2)c1`: the IC50 in data set [1] was 126 nM. On to `N#Cc1cccc(-c2ccc(C(=O)N[C@H](CCCNC(=N)N)C(=O)O)o2)c1`, for which the concentration for half-maximal inhibition (IC50) in data set [1] was 200 nM. `N=C(N)NCCC[C@@H](NC(=O)c1ccc(-c2cccc(Cl)c2)o1)C(=O)O` had a concentration for a half-maximal effect (EC50) in [3] of 501 nM. The molecule also had an IC50 in [1] of 79.4 nM. For the molecule `NC(N)=NCCC[C@@H](NC(=O)c1ccc(-c2ccc(F)c(Cl)c2)o1)C(=O)O`, in data set [1], half-maximal inhibition (IC50) was put at 200 nM.

For `N=C(N)NCCC[C@@H](NC(=O)c1ccc(-c2cc(Cl)ccc2Cl)o1)C(=O)O`, the IC50 in data set [1] was 1580 nM.

The molecule `N=C(N)NCCC[C@@H](NC(=O)c1ccc(C(c2cccc(Cl)c2)c2cccc(Cl)c2)o1)C(=O)O` had an EC50 in data set [3] of 20 nM. Besides, in data set [1], the IC50 was 15.8 nM. `N=C(N)NCCC[C@H](NC(=O)COCC(c1ccccc1)c1ccccc1)C(=O)O` showed an IC50 in [1] of 501 nM. `N=C(N)NCCC[C@@H](NC(=O)c1ccc(-c2cccc(F)c2)o1)C(=O)O`: in data set [1], the IC50 is 316 nM. Against the preceding molecule, the IC50 is about 1.6-fold lower.

Turning to `N=C(N)NCCC[C@@H](NC(=O)c1ccc(-c2cccc(Cl)c2)s1)C(=O)O`, in [2], the concentration giving a half-maximal response (EC50) is 15.8 µM. In addition, the concentration for half-maximal inhibition (IC50) in data set [1] is 6310 nM. Take `COc1cccc(-c2ccc(C(=O)N[C@H](CCCN=C(N)N)C(=O)O)o2)c1`: in data set [1], inhibition was half-maximal at 316 nM (IC50). In data set [1], `N=C(N)NCCC[C@@H](NC(=O)c1ccc(-c2cccc(CO)c2)o1)C(=O)O` showed an IC50 of 794 nM.

Consider `CCOc1cccc(-c2ccc(C(=O)N[C@H](CCCN=C(N)N)C(=O)O)o2)c1`, for which the IC50 in [1] was 200 nM.
